Consider 30 molecules from US10975083B2, “Blood-brain barrier-penetrant dopamine-β-hydroxylase inhibitors” (BIAL—PORTELA & Cᵃ, S.A., priority 2016, dated 2021).

This assay concerns the target T1, DβH (Homo sapiens, UniProt P09172).
T1 construct: reaction mixture (total volume 500 μl) contained: cellular homogenate (75 μg total protein); host or cells: SK-N-SH cell homogenate
T1 sequence (P09172 1-617): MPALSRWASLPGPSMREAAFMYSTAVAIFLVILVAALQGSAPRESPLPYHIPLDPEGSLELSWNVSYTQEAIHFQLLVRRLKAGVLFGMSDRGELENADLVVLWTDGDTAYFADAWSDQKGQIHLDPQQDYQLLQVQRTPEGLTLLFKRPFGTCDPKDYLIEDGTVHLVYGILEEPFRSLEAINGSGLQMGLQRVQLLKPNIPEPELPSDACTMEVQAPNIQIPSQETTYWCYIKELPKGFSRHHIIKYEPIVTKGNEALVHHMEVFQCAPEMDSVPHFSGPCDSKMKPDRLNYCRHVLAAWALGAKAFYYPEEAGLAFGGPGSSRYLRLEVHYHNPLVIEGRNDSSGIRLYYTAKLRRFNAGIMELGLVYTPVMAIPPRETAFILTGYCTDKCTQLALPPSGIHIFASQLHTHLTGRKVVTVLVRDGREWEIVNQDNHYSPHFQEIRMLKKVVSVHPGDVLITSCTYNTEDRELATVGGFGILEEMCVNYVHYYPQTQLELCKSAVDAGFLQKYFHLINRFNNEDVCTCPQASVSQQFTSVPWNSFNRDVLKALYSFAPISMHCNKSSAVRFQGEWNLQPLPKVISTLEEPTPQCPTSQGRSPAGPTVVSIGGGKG
Nature of the assay: DβH inhibition cell assay (SK-N-SH cellular homogenates, tyramine to octopamine). Format: biochemical. The settings on record: SK-N-SH cell homogenate; for remaining activity at 0.1 µM: inhibitor 0.1 μM, read-out: DβH activity in % of Ctrl (0.1 μM); for remaining activity at 1 µM: inhibitor 1 μM, read-out: DβH activity in % of Ctrl (1 μM); for remaining activity at 10 µM: inhibitor 10 μM, read-out: DβH activity in % of Ctrl (10 μM). The protocol:
The ability of a compound to inhibit DβH activity may be assessed using the following cell assay. […] . […] Fetal bovine serum was removed from cells for 4 h prior to collection.
For the preparation of cellular homogenates, media was removed and cell monolayers were washed with 50 mM Tris-HCl pH 7.4. Cells were subsequently scrapped off the flasks and were resuspended in 50 mM Tris pH 7.4. Cell suspensions were homogenized with SilentCrusher M (Heidolph) for a short stroke and resultant homogenates were aliquoted and stored frozen at −80° C.
Total protein was quantified in cellular homogenates with BioRad Protein Assay (BioRad) using a standard curve of BSA (50-250 μg/mL).
DβH activity was measured by a modification of the method of Nagatsu and Udenfriend (Nagatsu, T. and S. Udenfriend: “Photometric assay of dopamine-hydroxylase activity in human blood.” Clin. Chem. 18(9): 980-3, 1972) which is based on the enzymatic hydroxylation of tyramine into octopamine. The octopamine formed is subsequently oxidized to p-hydroxybenzaldehyde and measured by spectrophotometry. In brief, reaction mixture (total volume 500 μl) contained: cellular homogenate (75 μg total protein) sodium acetate pH 5.0 (200 mM), NEM (30 mM), CuSO4 (5 μM), catalase aqueous solution (0.5 mg/mL), pargyline-HCl (1 mM), sodium fumarate (10 mM), ascorbic acid (10 mM), inhibitor or vehicle and tyramine (25 mM). After a 10 min pre-incubation period at 37° C., the reaction was initiated by the addition of tyramine. Reaction was carried out for 45 min at 37° C. before termination with 50 μl PCA (2 M).
Samples were centrifuged for 3 min at 16100 g and supernatants were subjected to solid phase extraction. Solid phase extraction was performed using either SPE cartridges ISOLUTE SCX-3 (100 mg, 1 mL) or SPE 2 mL fixed 96 well plates ISOLUTE SCX-3 (100 mg) previously equilibrated with MilliQ water. Columns/plates were centrifuged at 150 g for 2 min. Eluate was discarded and matrix was washed with 1 mL of MilliQ water after which octopamine was eluted with 2×0.25 mL ammonium hydroxide (4 M). The oxidation of octopamine to p-hydroxybenzaldehyde was carried out for 6 min with 100 μl sodium periodate (2%) and was stopped with 100 μl sodium metabisulfite (10%). Absorbance was measured at 330 nm on a Spectramax microplate reader (Molecular Devices, Sunnyvale, Calif.). All enzymatic reactions were performed in duplicate. Results are reported in the table below as activity in % of control at the inhibitor concentration tested.

Each structure is given as a SMILES string.

`NC(=S)N1CCC(c2ccc(F)cc2)C1` (stereo not drawn) [Example 3, 3-(4-Fluorophenyl)pyrrolidine-1-carbothioamide]: the remaining activity at 0.1 µM was determined as 89%, the remaining activity at 1 µM came out at 53.8% and the remaining activity at 10 µM was 3.9%.
For the molecule `NC(=S)N1CCCC(c2ccccc2)C1` (stereo not drawn) [Example 4, 3-phenylpiperidine-1-carbothioamide], the remaining activity at 10 µM came out at 18.6%.
For `NC(=S)N1CCC(c2ccc(F)cc2F)C1` (stereo not drawn) [Example 5, 3-(2,4-difluorophenyl)pyrrolidine-1-carbothioamide], the remaining activity at 0.1 µM came to 83.2% and the remaining activity at 10 µM stood at 0.8%.
On to `NC(=S)N1CC[C@@H](c2ccccc2)C1` [Example 6, (S)-3-phenylpyrrolidine-1-carbothioamide], for which the remaining activity at 0.1 µM is 97.6%, the remaining activity at 1 µM came to 50.3% and the remaining activity at 10 µM was 3.3%.
Take `NC(=S)N1CC[C@H](c2ccccc2)C1` [Example 11, (R)-3-phenylpyrrolidine-1-carbothioamide]: the remaining activity at 0.1 µM was determined as 86.4%, the remaining activity at 1 µM came out at 31.4% and the remaining activity at 10 µM is 1.5%.
For the molecule `Cc1ccccc1C1CCN(C(N)=S)C1` (stereo not drawn) [Example 13, 3-o-tolylpyrrolidine-1-carbothioamide], the remaining activity at 10 µM came to 7.2%.
`Cc1cccc(C2CCN(C(N)=S)C2)c1` (stereo not drawn) [Example 14, 3-m-tolylpyrrolidine-1-carbothioamide]: the remaining activity at 10 µM came to 13.1%.
In the case of `NC(=S)N1CCC(c2ccoc2)C1` (stereo not drawn) [Example 16, 3-(furan-3-yl)pyrrolidine-1-carbothioamide], the remaining activity at 1 µM came to 55.5%.
For `NC(=S)N1CCC(c2cc(F)ccc2F)C1` (stereo not drawn) [Example 18, 3-(2,5-difluorophenyl)pyrrolidine-1-carbothioamide], the remaining activity at 0.1 µM was 57% and the remaining activity at 1 µM was determined as 6.4%.
Turning to `NC(=S)N1CCC(c2cc(F)c(F)cc2F)C1` (stereo not drawn) [Example 19, 3-(2,4,5-trifluorophenyl)pyrrolidine-1-carbothioamide], the remaining activity at 1 µM was 33.4%.
For the molecule `NC(=S)N1CCC(c2ccc(F)c(F)c2)C1` (stereo not drawn) [Example 20, 3-(3,4-difluorophenyl)pyrrolidine-1-carbothioamide], the remaining activity at 1 µM was 44.8%.
The same measure, in the same setting: with `NC(=S)N1CC[C@@H](c2c(F)cc(F)cc2F)C1` [Example 21, (S)-3-(2,4,6-trifluorophenyl)pyrrolidine-1-carbothioamide] the figure was 17.5%.
As to `NC(=S)N1CCC(c2ccc(F)c(F)c2F)C1` (stereo not drawn) [Example 22, 3-(2,3,4-trifluorophenyl)pyrrolidine-1-carbothioamide], the remaining activity at 1 µM came out at 27.4%.
For `NC(=S)N1C[C@@H]2C[C@]2(c2cccs2)C1` [Example 28, (1R,5R)-1-(thiophen-2-yl)-3-azabicyclo[3.1.0]hexane-3-carbothioamide], the remaining activity at 0.1 µM was determined as 0.2% and the remaining activity at 1 µM is 3.3%.
Take `NC(=S)N1CCC(c2c(F)c(F)c(F)c(F)c2F)C1` (stereo not drawn) [Example 29, 3-(perfluorophenyl)pyrrolidine-1-carbothioamide]: the remaining activity at 0.1 µM was 26.9%.
Turning to `CNC(=S)N1CCC(c2c(F)c(F)cc(F)c2F)C1` (stereo not drawn) [Example 33, N-methyl-3-(2,3,5,6-tetrafluorophenyl)pyrrolidine-1-carbothioamide], the remaining activity at 0.1 µM was 11.8% and the remaining activity at 1 µM is 1%.
With `NC(=S)N1C[C@H]2C[C@@]2(c2cc(F)cc(F)c2)C1` [Example 35, (1R,5S)-1-(3,5-difluorophenyl)-3-azabicyclo[3.1.0]hexane-3-carbothioamide], the remaining activity at 0.1 µM turned out to be 95%, the remaining activity at 1 µM worked out at 34.3% and the remaining activity at 10 µM stood at 0%.
`NC(=S)N1C[C@@H]2C[C@]2(c2cc(F)cc(F)c2)C1` [Example 36, (1S,5R)-1-(3,5-difluorophenyl)-3-azabicyclo[3.1.0]hexane-3-carbothioamide]: the remaining activity at 0.1 µM turned out to be 4% and the remaining activity at 1 µM stood at 0%.
With `CCCNC(=S)N1C[C@@H]2C[C@]2(c2cc(F)cc(F)c2)C1` [Example 39, (1S,5R)-1-(3,5-Difluorophenyl)-N-propyl-3-azabicyclo[3.1.0]hexane-3-carbothioamide], the remaining activity at 0.1 µM is 40.4% and the remaining activity at 1 µM amounted to 0.3%.
With `Fc1ccc(F)c(C23CC2CN(C(=S)NCCS)C3)c1` (stereo not drawn) [Example 40, 1-(2,5-difluorophenyl)-N-(2-mercaptoethyl)-3-azabicyclo[3.1.0]hexane-3-carbothioamide], the remaining activity at 0.1 µM is 87.9%.
Turning to `CNC(=S)N1C[C@@]2(c3cc(F)cc(F)c3)C[C@H]2C1=O` [Example 41, (1S,5R)-1-(3,5-difluorophenyl)-N-methyl-4-oxo-3-azabicyclo[3.1.0]hexane-3-carbothioamide], the remaining activity at 0.1 µM came to 29.8% and the remaining activity at 1 µM turned out to be 0%.
As to `S=C1NCC2CC(c3ccccc3)CN12` (stereo not drawn) [Example 44, 6-Phenyltetrahydro-1H-pyrrolo[1,2-c]imidazole-3(2H)-thione], the remaining activity at 1 µM was 70.9% and the remaining activity at 10 µM was 13.7%.
With `NNC(=S)N1CC2CC2(c2cc(F)cc(F)c2)C1` (stereo not drawn) [Example 45, 1-(3,5-Difluorophenyl)-3-azabicyclo[3.1.0]hexane-3-carbothiohydrazide], the remaining activity at 1 µM turned out to be 29.1%.
On to `CN(C)C(=S)N1CC2CC2(c2cc(F)cc(F)c2)C1` (stereo not drawn) [Example 46, 1-(3,5-Difluorophenyl)-N,N-dimethyl-3-azabicyclo[3.1.0]hexane-3-carbothioamide], for which the remaining activity at 1 µM came out at 31.6%.
Same read-out and setting: then `N#CCNC(=S)N1CC2CC2(c2cc(F)ccc2F)C1` (stereo not drawn) [Example 47, N-(cyanomethyl)-1-(2,5-difluorophenyl)-3-azabicyclo[3.1.0]hexane-3-carbothioamide], with 45.3%; and `CNC(=S)N1C=CC(c2cc(F)cc(F)c2)C1` (stereo not drawn) [Example 48, 3-(3,5-Difluorophenyl)-N-methyl-2,3-dihydro-1H-pyrrole-1-carbothioamide], with 43%; and `Fc1cc(F)cc([C@]23C[C@H]2c2n[nH]c(=S)n2C3)c1` [Example 60, (5aS,6aR)-5a-(3,5-difluorophenyl)-5,5a,6,6a-tetrahydrocyclopropa[3,4]pyrrolo[2,1-c][1,2,4]triazole-3(2H)-thione], with 60.2%.
`Fc1cc(F)c(F)c([C@@H]2Cc3c[nH]c(=S)n3C2)c1F` [Example 61, (S)-6-(2,3,5,6-tetrafluorophenyl)-6,7-dihydro-2H-pyrrolo[1,2-c]imidazole-3(5H)-thione]: the remaining activity at 0.1 µM came to 52.2% and the remaining activity at 1 µM was found to be 8.4%.
For `Fc1cc(F)c(F)c([C@H]2Cc3c[nH]c(=S)n3C2)c1F` [Example 62, (R)-6-(2,3,5,6-tetrafluorophenyl)-6,7-dihydro-2H-pyrrolo[1,2-c]imidazole-3(5H)-thione] the same measures were 43.1% and 9.8%.
On to `Fc1cc(F)c(F)c([C@]23C[C@H]2c2c[nH]c(=S)n2C3)c1` [Example 63, (5aS,6aR)-5a-(2,3,5-trifluorophenyl)-5,5a,6,6a-tetrahydrocyclopropa[3,4]pyrrolo[1,2-c]imidazole-3 (2H)-thione], for which the remaining activity at 1 µM turned out to be 13.9%.
